Test: Solution stability of N-protected and C-protected amino acid
Type: physicochemical
Settings: N-protected and C-protected amino acid (Fmoc-Leu condensed with the listed compound) in tetrahydrofuran and acetic acid, room temperature, three days; amount remaining (survival rate)
Description: The obtained N-protected and C-protected amino acid (10 mg) and 2,6-di-tert-butyl-4-methylphenol (internal standard: 8 mg) were dissolved in a tetrahydrofuran solution (20 mL) and acetic acid (2 mL), respectively, and after allowing time to pass at room temperature for three days, the amount of remaining N-protected and C-protected amino acid was determined and evaluated based on the following standard.
Regarding the evaluation of the solution stability, a case of “B” or higher was regarded as acceptable.
It can be said that, as the solution stability is higher, peptide stability is high, side reactions can be suppressed, and yield is excellent.
—Evaluation Standard— • “A”: survival rate was 99% or more. • “B”: survival rate was 97% or more and less than 99%. • “C”: survival rate was 95% or more and less than 97%. • “D”: survival rate was less than 95%.

Compound	Solution stability
CCCCCCCCCCCCCCCCCCCCCCOc1ccc(C(O)c2ccc(OCCCCCCCCCCCCCCCCCCCCCC)cc2)cc1 [Comparative compound (1-1)]	C (survival rate was 95% or more and less than 97%)
CCCCCCCCCCCCCCCCCCCCCCOc1cc(COc2ccc3cc(C(O)c4ccc(OC)cc4)ccc3c2)cc(OCCCCCCCCCCCCCCCCCCCCCC)c1 (centres unmarked) [Compound (1-2)]	A (survival rate was 99% or more)
